Assays:
B1 bradykinin receptor [1] = target: T1, B1 bradykinin receptor (Homo sapiens, UniProt P46663); test: Inhibition of human B1 receptor
T1 sequence (P46663 whole entry): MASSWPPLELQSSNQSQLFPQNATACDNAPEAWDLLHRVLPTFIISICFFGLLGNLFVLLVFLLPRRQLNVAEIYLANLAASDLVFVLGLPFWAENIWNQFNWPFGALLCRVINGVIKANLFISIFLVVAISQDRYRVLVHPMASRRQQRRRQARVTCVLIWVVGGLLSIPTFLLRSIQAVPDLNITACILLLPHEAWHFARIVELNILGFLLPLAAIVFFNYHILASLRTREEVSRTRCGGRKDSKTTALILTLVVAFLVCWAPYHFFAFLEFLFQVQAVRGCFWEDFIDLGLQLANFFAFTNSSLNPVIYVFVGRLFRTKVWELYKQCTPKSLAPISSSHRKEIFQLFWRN

B1 bradykinin receptor [2] = target: T1, B1 bradykinin receptor; test: Inhibition of human B1 receptor by calcium influx functional assay
[3] = Clearance in rat at 1 mg/kg, iv; type: ADME, organism-based; parameters: dose 1 mg/kg, route intravenous; conditions: in vivo
[4] = Volume of distribution in rat at 1 mg/kg, iv; type: ADME, organism-based; parameters: dose 1 mg/kg, route intravenous; conditions: in vivo, read-out: Vss
[5] = Oral bioavailability in rat at 10 mg/kg, po; type: ADME, organism-based; conditions: in vivo
[6] = Half life in rat at 1 mg/kg, iv; type: ADME, organism-based; parameters: dose 1 mg/kg, route intravenous; conditions: in vivo

Row | Structure (SMILES) | IC50 (B1 bradykinin receptor [1]) [nM] | IC50 (B1 bradykinin receptor [2]) [nM] | further results
1 | Cc1ccc(S(=O)(=O)N2CCCC[C@H]2CC(=O)N[C@@H]2CCCc3cc(CNC(C)(C)C)ccc32)cc1Cl | 15 | 22 | 
2 | O=C(C[C@@H]1CCCCN1S(=O)(=O)c1cccc(C(F)(F)F)c1)N[C@@H]1CCCc2cc(CNC3CCC3)ccc21 | 58 | 54 | 
3 | Cc1ccc(S(=O)(=O)N2CCCC[C@H]2CC(=O)N[C@@H]2CCCc3cc(CNC(C)(C)C)ccc32)cc1 | 93 | 130 | 
4 | CC(C)(C)NCc1ccc2c(c1)CCC[C@H]2NC(=O)C[C@@H]1CCCCN1S(=O)(=O)c1cccc(C(F)(F)F)c1 |  |  | clearance [3]: 36.7 mL/min/kg; Vd [4]: 5.4 L/kg; bioavailability [5]: 19%; half-life [6]: 2 h
5 | O=C(C[C@@H]1CCCCN1S(=O)(=O)c1cccc(C(F)(F)F)c1)N[C@@H]1CCCc2cc(CNCC(F)(F)F)ccc21 | 1900 | 700 | 
6 | O=C(C[C@@H]1CCCCN1S(=O)(=O)c1cccc(C(F)(F)F)c1)N[C@@H]1CCCc2cc(CNC3CC3)ccc21 | 48 | 47 | 
7 | O=C(C[C@@H]1CCCCN1S(=O)(=O)c1cccc(C(F)(F)F)c1)N[C@@H]1CCCc2cc(CN3CCC3)ccc21 | 1100 | 4300 | 
8 | CC(C)(C)NCc1ccc2c(c1)OCC[C@H]2NC(=O)C[C@@H]1CCCCN1S(=O)(=O)c1cccc(C(F)(F)F)c1 | 160 | 95 | 
9 | Cc1ccc(S(=O)(=O)N2CCCC[C@H]2CC(=O)N[C@@H]2CCCc3cc(CNC(C)(C)C)ccc32)cc1C(F)(F)F | 11 | 16 | 
10 | CC(C)CNCc1ccc2c(c1)CCC[C@H]2NC(=O)C[C@@H]1CCCCN1S(=O)(=O)c1cccc(C(F)(F)F)c1 | 13 | 42 | 
11 | CC(C)(C)NCc1ccc2c(c1)CCC[C@H]2NC(=O)C[C@@H]1CCCCN1S(=O)(=O)c1cccc2nsnc12 | 150 | 180 | 
12 | COCCNCc1ccc2c(c1)CCC[C@H]2NC(=O)C[C@@H]1CCCCN1S(=O)(=O)c1cccc(C(F)(F)F)c1 | 21 | 46 | 
13 | CC(C)(C)NCc1ccc2c(c1)OCC[C@H]2NC(=O)C[C@@H]1CCCN1S(=O)(=O)c1cccc(C(F)(F)F)c1 | 1500 | 960 | 
14 | O=C(C[C@@H]1CCCCN1S(=O)(=O)c1cccc(C(F)(F)F)c1)N[C@@H]1CCCc2cc(CNCC3CC3)ccc21 | 16 | 31 | 
15 | CN(C)Cc1ccc2c(c1)CCC[C@H]2NC(=O)C[C@@H]1CCCCN1S(=O)(=O)c1cccc(C(F)(F)F)c1 | 62 | 160 | 
16 | CC(C)(C)NCc1ccc2c(c1)CCC[C@H]2NC(=O)C[C@@H]1CCCCN1S(=O)(=O)c1ccc(Cl)cc1 | 560 | 810 | 
17 | CC(C)(C)NCc1ccc2c(c1)CCC[C@H]2NC(=O)C[C@@H]1CCCCN1S(=O)(=O)c1cccc(Cl)c1 | 120 | 73 | 
18 | CC(C)NCc1ccc2c(c1)CCC[C@H]2NC(=O)C[C@@H]1CCCCN1S(=O)(=O)c1cccc(C(F)(F)F)c1 | 72 | 110 | 
19 | CC(C)(C)CNCc1ccc2c(c1)CCC[C@H]2NC(=O)C[C@@H]1CCCCN1S(=O)(=O)c1cccc(C(F)(F)F)c1 | 59 | 230 | 
20 | CC(C)(C)NCc1ccc2c(c1)CCC[C@H]2NC(=O)C[C@@H]1CCCCN1S(=O)(=O)c1csc2ccccc12 | 14 | 66 | 
21 | CC(C)(C)NCc1ccc2c(c1)CCC[C@H]2NC(=O)C[C@@H]1CCCCN1S(=O)(=O)c1cccc2cnccc12 | 610 | 4300 | 
22 | CCCCOc1ccc(S(=O)(=O)N2CCCC[C@H]2CC(=O)N[C@@H]2CCCc3cc(CNC(C)(C)C)ccc32)cc1 | 1200 | 590 | 
23 | CC(C)(C)NCc1ccc2c(c1)CCC[C@H]2NC(=O)C[C@@H]1CCCCN1S(=O)(=O)c1ccccc1 | 1700 | 2400 | 
24 | CC(C)(C)NCc1ccc2c(c1)CCC[C@H]2NC(=O)C[C@@H]1CCCCN1S(=O)(=O)c1ccc(C(F)(F)C(F)(F)F)cc1 | 360 | 210 | 
25 | COc1ccc(S(=O)(=O)N2CCCC[C@H]2CC(=O)N[C@@H]2CCCc3cc(CNC(C)(C)C)ccc32)cc1 | 780 | 1400 | 
26 | CC(C)(C)NCc1ccc2c(c1)CCC[C@H]2NC(=O)C[C@@H]1CCCCN1S(=O)(=O)c1ccc(-c2ccccc2)cc1 | 690 | 540 | 
27 | Cn1cnc(S(=O)(=O)N2CCCC[C@H]2CC(=O)N[C@@H]2CCCc3cc(CNC(C)(C)C)ccc32)c1 | > 100000 | > 40000 | 
28 | CC(C)(C)NCc1ccc2c(c1)CCC[C@H]2NC(=O)C[C@@H]1CCCCN1S(=O)(=O)c1cccc2cccnc12 | 220 | 440 | 
